# Data as given in US20240246969A1, “HETEROCYCLIC DERIVATIVES AS CAMKK2 INHIBITORS” (Bristol-Myers Squibb Company, priority 2021, published 2024).
# Target: CaMKK2 (Homo sapiens, UniProt Q96RR4)
# Assay: CaMKK2 binding assay (LanthaScreen TR-FRET)
# Settings: not given
# Description: The ability of test compounds to bind and inhibit the activity of CaMKK2 were determined using a binding assay using LanthaScreent (Thermofisher) detection reagents in a 384-well plate format using the following assay buffer: 50 mM HEPES (pH7.5), 10 mM MgCl2, 1 mM EGTA, and 0.01% Brij-35.
# A 10-point serial dilution of inhibitor compound in 0.5% DMSO was added to each well of the plate. The final assay volume in well was 15 uL. […] A ratio was calculated from the 2 readouts and fitted to a 4-parameter fit to determine the binding IC50.
# CaMKK2, sequence (Q96RR4 whole entry): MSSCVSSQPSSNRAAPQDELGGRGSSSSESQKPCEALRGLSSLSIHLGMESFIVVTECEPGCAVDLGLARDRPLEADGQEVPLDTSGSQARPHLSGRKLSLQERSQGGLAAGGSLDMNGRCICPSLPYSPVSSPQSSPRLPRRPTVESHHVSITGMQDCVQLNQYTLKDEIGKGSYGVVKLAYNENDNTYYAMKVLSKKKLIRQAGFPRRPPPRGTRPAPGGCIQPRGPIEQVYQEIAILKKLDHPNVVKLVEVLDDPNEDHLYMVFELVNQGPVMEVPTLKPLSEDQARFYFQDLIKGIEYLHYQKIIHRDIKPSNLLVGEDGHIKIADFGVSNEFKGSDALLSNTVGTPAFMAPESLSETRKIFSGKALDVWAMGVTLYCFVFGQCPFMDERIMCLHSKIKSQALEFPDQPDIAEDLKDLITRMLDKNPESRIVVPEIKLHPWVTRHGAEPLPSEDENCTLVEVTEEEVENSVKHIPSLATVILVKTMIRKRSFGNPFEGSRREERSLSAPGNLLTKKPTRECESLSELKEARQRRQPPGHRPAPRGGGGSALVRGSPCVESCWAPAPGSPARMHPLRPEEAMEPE
row,Compound,IC50
1,"O=C(O)c1ccc(-n2ccc3ncc(-c4ccc(F)cc4F)nc32)cc1NC1CC1 [Example 10, 2-(Cyclopropylamino)-4-(3-(2,4-difluorophenyl)-5H-pyrrolo[2,3-b]pyrazin-5-yl)benzoic Acid]",< 100 nM
2,"CCNc1cc(-n2ccc3ncc(-c4ccc5c(cnn5C)c4)nc32)ccc1C(=O)O [Example 14, 2-(Ethylamino)-4-(3-(1-methyl-1H-indazol-5-yl)-5H-pyrrolo[2,3-b]pyrazin-5-yl)benzoic Acid]",< 100 nM
3,"Cc1cc(C)cc(-c2cnc3ccn(-c4ccc(C(=O)O)c(CC5CNC5)c4)c3n2)c1 [Example 27, 2-(azetidin-3-ylmethyl)-4-(3-(3,5-dimethylphenyl)-5H-pyrrolo[2,3-b]pyrazin-5-yl) benzoic Acid]",< 100 nM
4,"Cc1cc(C)cc(-c2cnc3ccn(-c4ccc(C(=O)O)c(NC5CCNCC5)c4)c3n2)c1 [Example 34, 4-(3-(3,5-dimethylphenyl)-5H-pyrrolo[2,3-b]pyrazin-5-yl)-2-(piperidin-4-ylamino)benzoic Acid]",< 100 nM
5,"O=C(NS(=O)(=O)C(F)(F)F)c1ccc(-n2ccc3ncc(C4CC4)nc32)cc1C1CCCC1 [Example 21, 2-Cyclopentyl-4-(3-cyclopropyl-5H-pyrrolo[2,3-b]pyrazin-5-yl)-N-((trifluoromethyl)sulfonyl)benzamide]",100 to 1000 nM
6,"Cc1cc(C)cc(-c2cnc3ccn(-c4ccc(C(=O)O)c(N[C@@H]5CCCNC5)c4)c3n2)c1 [Example 33, (R)-4-(3-(3,5-dimethylphenyl)-5H-pyrrolo[2,3-b]pyrazin-5-yl)-2-(piperidin-3-ylamino)benzoic Acid]",< 100 nM
7,"COc1cccc(-c2cc3nccc(-c4ccc(C(=O)O)c(C5CCCC5)c4)n3n2)c1 [Example 2.9, 2-Cyclopentyl-4-(2-(3-methoxyphenyl)pyrazolo[1,5-a]pyrimidin-7-yl)benzoic Acid]",< 100 nM
8,"Cc1cc(C)cc(-c2cnc3ccn(-c4ccc(C(=O)O)c(C5CCNCC5)c4)c3n2)c1 [Example 29, 4-(3-(3,5-dimethylphenyl)-5H-pyrrolo[2,3-b]pyrazin-5-yl)-2-(piperidin-4-yl)benzoic Acid]",< 100 nM
9,"COc1cc(-c2ccnc3cc(-c4ccc(F)cc4)nn23)ccc1C(=O)N[C@H](CO)c1ccccc1 [Example 2.13, (S)-4-(2-(4-Fluorophenyl)pyrazolo[1,5-a]pyrimidin-7-yl)-N-(2-hydroxy-1-phenylethyl)-2-methoxybenzamide]",< 100 nM
10,"COc1cc2nccc(-c3ccc(C(=O)O)c(C4CCCC4)c3)n2n1 [Example 2.3, 2-Cyclopentyl-4-(2-methoxypyrazolo[1,5-a]pyrimidin-7-yl)benzoic Acid]",< 100 nM
11,"Cn1ncc2cc(-c3cnc4ccn(-c5ccc(C(=O)O)c(NCC6CC6)c5)c4n3)c(F)cc21 [Example 8, 2-((Cyclopropylmethyl)amino)-4-(3-(6-fluoro-1-methyl-1H-indazol-5-yl)-5H-pyrrolo[2,3-b]pyrazin-5-yl)benzoic Acid]",< 100 nM
12,"Cn1cc(-c2cc3nccc(-c4ccc(C(=O)O)c(C5CCCC5)c4)n3n2)cn1 [Example 2.12, 2-Cyclopentyl-4-(2-(1-methyl-H-pyrazol-4-yl)pyrazolo[1,5-a]pyrimidin-7-yl)benzoic Acid]",< 100 nM
13,"c1ccc(-c2cnc3ccn(-c4ccc(-c5nn[nH]n5)c(C5CCCC5)c4)c3n2)cc1 [Example 23, 5-(3-Cyclopentyl-4-(2H-tetrazol-5-yl)phenyl)-3-phenyl-5H-pyrrolo[2,3-b]pyrazine]",< 100 nM
14,"Cn1cc2ccc(-c3cnc4ccn(-c5ccc(C(=O)O)c(NCC6CC6)c5)c4n3)cc2n1 [Example 17, 2-((Cyclopropylmethyl)amino)-4-(3-(2-methyl-2H-indazol-6-yl)-5H-pyrrolo[2,3-b]pyrazin-5-yl)benzoic Acid]",< 100 nM
15,"Cc1cc(C)cc(-c2cnc3ccn(-c4ccc(C(=O)O)c(N[C@H]5CCNC5)c4)c3n2)c1 [Example 32, (S)-4-(3-(3,5-dimethylphenyl)-5H-pyrrolo[2,3-b]pyrazin-5-yl)-2-(pyrrolidin-3-ylamino)benzoic Acid]",< 100 nM
16,"O=C(O)c1ccc(-n2ccc3ncc(-c4ccc(F)cc4)nc32)cc1NCC1CC1 [Example 11, 2-((Cyclopropylmethyl)amino)-4-(3-(4-fluorophenyl)-5H-pyrrolo[2,3-b]pyrazin-5-yl)benzoic Acid]",< 100 nM
17,"O=C(O)c1ccc(-c2ccnc3cc(C4CC4)nn23)cc1C1CCCC1 [Example 2.1, 2-Cyclopentyl-4-(2-cyclopropylpyrazolo[1,5-a]pyrimidin-7-yl)benzoic Acid]",< 100 nM
18,"Cc1cc(C)cc(-c2cnc3ccn(-c4ccc(C(=O)O)c(N[C@@H]5CCNC5)c4)c3n2)c1 [Example 31, (R)-4-(3-(3,5-dimethylphenyl)-5H-pyrrolo[2,3-b]pyrazin-5-yl)-2-(pyrrolidin-3-ylamino)benzoic Acid]",< 100 nM
19,"Cc1cc(C)cc(-c2cnc3ccn(-c4ccc(C(=O)O)c(O[C@@H]5CCNC5)c4)c3n2)c1 [Example 35, (R)-4-(3-(3,5-dimethylphenyl)-5H-pyrrolo[2,3-b]pyrazin-5-yl)-2-(pyrrolidin-3-yloxy)benzoic Acid]",100 to 1000 nM
20,"Cc1cc(C)cc(-c2cnc3ccn(-c4ccc(C(=O)O)c(C5CCCNC5)c4)c3n2)c1 (single isomer, unassigned) [Example 28]",< 100 nM
21,"CCNc1cc(-n2ccc3ncc(-c4ccc5cn(C)nc5c4)nc32)ccc1C(=O)O [Example 16, 2-(Ethylamino)-4-(3-(2-methyl-2H-indazol-6-yl)-5H-pyrrolo[2,3-b]pyrazin-5-yl)benzoic Acid]",< 100 nM
22,"N#Cc1ccc(-n2ccc3ncc(-c4ccccc4)nc32)cc1C1CCCC1 [Example 22, 2-Cyclopentyl-4-(3-phenyl-5H-pyrrolo[2,3-b]pyrazin-5-yl)benzonitrile]",1000 to 10000 nM
23,"O=C(O)c1ccc(-c2ccnc3cc(-c4cccc(F)c4)nn23)cc1C1CCCC1 [Example 2.7, 2-Cyclopentyl-4-(2-(3-fluorophenyl)pyrazolo[1,5-a]pyrimidin-7-yl)benzoic Acid]",< 100 nM
24,"Cc1cccc(-c2cnc3ccn(-c4ccc(C(=O)O)c(C5CCCC5)c4)c3n2)c1 [Example 4, 2-Cyclopentyl-4-(3-(m-tolyl)-5H-pyrrolo[2,3-b]pyrazin-5-yl)benzoic Acid]",< 100 nM
25,"Cc1cc(C)cc(-c2cnc3ccn(-c4ccc(C(=O)O)c(NC5CNC5)c4)c3n2)c1 [Example 25, 2-(azetidin-3-ylamino)-4-(3-(3,5-dimethylphenyl)-5H-pyrrolo[2,3-b]pyrazin-5-yl)benzoic Acid]",< 100 nM
26,"Cc1cc(C)cc(-c2cnc3ccn(-c4ccc(C(=O)O)c(C5CCNC5)c4)c3n2)c1 (single isomer, unassigned) [Example 26]",< 100 nM

# Next, values leading:
row,IC50,Compound
1,< 100 nM,"O=C(O)c1ccc(-c2c(F)cnc3cn(-c4cc(Cl)cc(C(F)(F)F)c4)nc23)cc1C1CCCC1 [Example 3.15, 4-(2-(3-Chloro-5-(trifluoromethyl)phenyl)-6-fluoro-2H-pyrazolo[4,3-b]pyridin-7-yl)-2-cyclopentylbenzoic]"
2,< 100 nM,"COc1cc(-c2ccnc3cn(-c4ccc(F)cc4)nc23)ccc1C(=O)N[C@H](CO)c1ccccc1 [Example 3.19, (S)-4-(2-(4-fluorophenyl)-2H-pyrazolo[4,3-b]pyridin-7-yl)-N-(2-hydroxy-1-phenylethyl)-2-methoxybenzamide]"
3,< 100 nM,"Cc1cccc(-c2cc3c(-c4ccc(C(=O)O)c(C5CCCC5)c4)ccnn3c2)c1 [Example 4.2, 2-Cyclopentyl-4-[6-(m-tolyl)pyrrolo[1,2-b]pyridazin-4-yl]benzoic Acid]"
4,< 100 nM,"O=C(O)c1ccc(-c2c(F)cnc3cn(-c4ccc(F)cc4)nc23)cc1NC1CC1 [Example 3.21, 2-(Cyclopropylamino)-4-(6-fluoro-2-(4-fluorophenyl)-2H-pyrazolo[4,3-b]pyridin-7-yl)benzoic Acid]"
5,< 100 nM,"Cc1cc(F)cc(-n2cc3ncc(F)c(-c4ccc(C(=O)O)c(C5CCCC5)c4)c3n2)c1 [Example 3.11, 2-Cyclopentyl-4-(6-fluoro-2-(3-fluoro-5-methylphenyl)-2H-pyrazolo[4,3-b]pyridin-7-yl)benzoic Acid]"
6,< 100 nM,"Cc1cc(-n2cc3ncc(F)c(-c4ccc(C(=O)O)c(C5CCCC5)c4)c3n2)cc(C(F)(F)F)c1 [Example 3.8, 2-Cyclopentyl-4-(6-fluoro-2-(3-methyl-5-(trifluoromethyl)phenyl)-2H-pyrazolo[4,3-b]pyridin-7-yl)benzoic Acid]"
7,< 100 nM,"O=C(O)c1ccc(-c2c(F)cnc3cn(-c4cc(F)cc(C(F)(F)F)c4)nc23)cc1C1CCCC1 [Example 3.14, 2-Cyclopentyl-4-(6-fluoro-2-(3-fluoro-5-(trifluoromethyl)phenyl)-2H-pyrazolo[4,3-b]pyridin-7-yl)benzoic Acid]"
8,< 100 nM,"O=C(O)c1ccc(-c2ccnn3cc(-c4ccccc4F)cc23)cc1C1CCCC1 [Example 4.3, 2-Cyclopentyl-4-[6-(2-fluorophenyl)pyrrolo[1,2-b]pyridazin-4-yl]benzoic Acid]"
9,< 100 nM,"COc1cc(-n2cc3ncc(F)c(-c4ccc(C(=O)O)c(C5CCCC5)c4)c3n2)cc(C(F)(F)F)c1 [Example 3.13, 2-Cyclopentyl-4-(6-fluoro-2-(3-methoxy-5-(trifluoromethyl)phenyl)-2H-pyrazolo[4,3-b]pyridin-7-yl)benzoic Acid]"
10,< 100 nM,"N#CNC(=O)c1ccc(-c2ccnc3cn(-c4ccc(F)cc4)nc23)cc1C1CCCC1 [Example 3.20, N-Cyano-2-cyclopentyl-4-(2-(4-fluorophenyl)-2H-pyrazolo[4,3-b]pyridin-7-yl)benzamide]"

# Same assay, conditions: binding IC50, 1 nM CaMKK2, 5 nM Kinase tracer 236, 20 minutes
row,Compound,IC50
1,"2-((azetidin-3-ylmethyl)amino)-4-(3-(3,5-dimethylphenyl)-5H-pyrrolo[2,3-b]pyrazin-5-yl)benzoic Acid [Example 30]",< 100 nM
